Reference: BindingDB's records for doi:10.1021/acs.jmedchem.9b01663 (Dalian University of Technology, 2020)

Assay: Inhibition of CRM1 in human HCT-15 cells assessed as reduction in cell viability incubated for 24 hrs

Compound `[O-][S@@+](/C=C/CCN=C=S)c1cc(C(F)(F)F)cc(C(F)(F)F)c1` has an IC50 of 151 nM.
